In patent US7947708B2, “Compounds modulating C-kit activity” (Plexxikon, Inc., priority 2004, dated 2011):

Columns and labels:
[1] = tested on: M-07e cell line; assay: M-07e cell proliferation stimulated by SCF (CellTiter-Glo growth inhibition); type: cell-based; settings: 72 h, SCF 100 ng/ml, three days, CellTiter-Glo luminescence, read-out: IC50, growth inhibition of SCF stimulated M-07e cells
Method: This inhibition is measured by the effect of compound concentration on cell growth to assess IC50 values. M-07e cells were seeded at 5×10^4 cells per well of a 96 well cell culture plate in 50 μl of cell culture medium of Iscove's Medium 1× (MOD, CellGro Mediatech catalog #15-016-CV) supplemented with 10% FBS (HyClone catalog #SH30071.03). […] Cells were also treated with staurosporine as a positive control. Cells were stimulated by adding 20 μl of 600 ng/ml SCF to a final concentration of 100 ng/ml (Biosource International SCF kit ligand catalog #PHC2115) in cell culture medium. The cells were incubated at 37° C., 5% CO2 for three days. CellTiter-Glo Buffer (Promega Cell Viability Assay catalog #G7573) and substrate were equilibrated to room temperature, and enzyme/substrate Recombinant Firefly Luciferase/Beetle Luciferin was reconstituted. The cell plates were equilibrated to room temperature for 30 minutes, then lysed by addition of an equivalent volume of the Celltiter-Glo Reagent. […] The plates were read on a Victor Wallac II using Luminescence protocol modified to read 0.1 s per well. The luminescence reading assesses the ATP content, which correlates directly with cell number such that the reading as a function of compound concentration is used to determine the IC50 value.

[2] = tested on: cells with activating c-Kit mutations in the catalytic region; settings: Ma et al., 2002; cited from earlier work

Compound | IC50 [1] | inhibition of cells with c-Kit mutations in the catalytic region [2]
FC(F)(F)c1ccc(CNc2ccc(Cc3c[nH]c4ncccc34)cn2)cc1 [Compound 1-3, [5-(1H-Pyrrolo[2,3-b]pyridin-3-ylmethyl)-pyridin-2-yl]-(4-trifluoromethyl-benzyl)-amine] | < 1000 nM | 
Cc1ccc(NC(=O)c2ccc(CN3CCN(C)CC3)cc2)cc1Nc1nccc(-c2cccnc2)n1 [ST1571] |  | did not inhibit the cells
